Common to all, as to format: cell-based
One test deals with Aspergillus flavus. As to the kind of experiment: FISP disc diffusion assay. Set-up: key: F: clear zone, fuzzy edges; S: slightly hazy zone (some growth observed throughout zone); H: hazy zone (considerable growth observed throughout zone); V: very hazy zone (zone of inhibition is barely discernable); R: zone displays a ring of resistant growth; no qualifier: clear zone throughout, sharp edges. The note with it: 250 μg/ml in CH2Cl2. An excerpt: (§1) The FISP assay employs disc diffusion susceptibility testing methods to generate a spectrum of activity against a panel of representative yeasts, filamentous fungi and bacteria.
(§2) The filamentous fungi used in the assay were Penicillium sp. Aspergillus niger, Trichoderma sp., Phoma sp., Trichoderma lignorum, Fusarium oxysporum, Ustilago maydis, Ceratocystis ulmi, Alternaria soloni, Verticillium serrae, Botrytis allii, Scopulariopsis communis, Cephalosporium sp., Cercospora beticola, Rhizomucor miehei, Aspergillus flavus and Aspergillus fumigatus.
(§3) For carrying out the assay, seeded assay plates are prepared in the following manner according to the type of assay strain.
(§4) Inocula for filamentous fungi are prepared by scraping the surface of stock plates maintained on potato dextrose agar with a moistened sterile dacron swab. The spores and mycelia are then suspended in 10 milliliters of sterile potato dextrose broth and adjusted to 65 percent transmission at 660 nm.
(§5) Assay plates for the yeasts and filamentous fungi are prepared by diluting the inoculum into appropriate molten agar medium, cooled to 45° C. to obtain a final concentration of 4 percent.
(§6) The seeded agar media thus prepared are dispensed into petri dishes for assays (11 ml per dish).
(§7) The samples to be tested for production of antifungal agent are applied to 6.2 mm filter paper discs (25 μl/disc) and air dried at 24° C. When the sample to be tested is crude broth, it may be centrifuged prior to application. The discs bearing the material to be tested are then applied employing sterile conditions to the seeded assay plates. The assay plates are then incubated at either 28° C. or 37° C. for 24 hours. In one of the assays for Bacillus subtilis, the sample is applied to a disc previously impregnated with 4M potassium chloride at 25 μl/disc and then air dried.
(§8) Following incubation, the inhibition zones are measured and recorded. The measurements are made from the extreme edge where growth differs from the background zone. The zones are noted as to appearance as fuzzy edge and clear center, hazy throughout, slightly hazy, very hazy or ringed.
(§9) FISP data is reported as the diameter (in mm.) of the zone of inhibition of growth in agar diffusion assays. The zone is determined by measuring growth that differs from the background lawn. A qualifier is also added to describe the zone quality as listed below: no qualifier: clear zone throughout, sharp edges

In a further test the test system is Botrytis allii. As to the kind of experiment: FISP disc diffusion assay. Also noted: key: F: clear zone, fuzzy edges; S: slightly hazy zone (some growth observed throughout zone); H: hazy zone (considerable growth observed throughout zone); V: very hazy zone (zone of inhibition is barely discernable); R: zone displays a ring of resistant growth; no qualifier: clear zone throughout, sharp edges. The note with it: 250 μg/ml in CH2Cl2.
Text: as §1, §2, §3, §4, §5, §6, §7, §8, §9

In the next test the test system is Cephalosporium sp. As to the kind of experiment: FISP disc diffusion assay. The note with it: 250 μg/ml in CH2Cl2. Also noted: key: F: clear zone, fuzzy edges; S: slightly hazy zone (some growth observed throughout zone); H: hazy zone (considerable growth observed throughout zone); V: very hazy zone (zone of inhibition is barely discernable); R: zone displays a ring of resistant growth; no qualifier: clear zone throughout, sharp edges.
Text: as §1, §2, §3, §4, §5, §6, §7, §8, §9

The next test relates to Ceratocystis ulmi. In words: FISP disc diffusion assay. Set-up: key: F: clear zone, fuzzy edges; S: slightly hazy zone (some growth observed throughout zone); H: hazy zone (considerable growth observed throughout zone); V: very hazy zone (zone of inhibition is barely discernable); R: zone displays a ring of resistant growth; no qualifier: clear zone throughout, sharp edges. The note with it: 250 μg/ml in CH2Cl2.
Text: as §1, §2, §3, §4, §5, §6, §7, §8, §9

In the next test the test system is Scopulariopsis communis. In words: FISP disc diffusion assay. The note with it: 250 μg/ml in CH2Cl2. Also noted: key: F: clear zone, fuzzy edges; S: slightly hazy zone (some growth observed throughout zone); H: hazy zone (considerable growth observed throughout zone); V: very hazy zone (zone of inhibition is barely discernable); R: zone displays a ring of resistant growth; no qualifier: clear zone throughout, sharp edges.
Text: as §1, §2, §3, §4, §5, §6, §7, §8, §9

The next test concerns Trichoderma sp. As to the kind of experiment: FISP disc diffusion assay. Also noted: key: F: clear zone, fuzzy edges; S: slightly hazy zone (some growth observed throughout zone); H: hazy zone (considerable growth observed throughout zone); V: very hazy zone (zone of inhibition is barely discernable); R: zone displays a ring of resistant growth; no qualifier: clear zone throughout, sharp edges. The note with it: 250 μg/ml in CH2Cl2.
Text: as §1, §2, §3, §4, §5, §6, §7, §8, §9

Another test has as its system Ustilago maydis. As to the kind of experiment: FISP disc diffusion assay. Also noted: key: F: clear zone, fuzzy edges; S: slightly hazy zone (some growth observed throughout zone); H: hazy zone (considerable growth observed throughout zone); V: very hazy zone (zone of inhibition is barely discernable); R: zone displays a ring of resistant growth; no qualifier: clear zone throughout, sharp edges. The note with it: 250 μg/ml in CH2Cl2.
Text: as §1, §2, §3, §4, §5, §6, §7, §8, §9

The next test relates to Aspergillus fumigatus. In words: Microdilution broth assay. The note with it: strain MF 4839, 35° C., 48-72 hours, read-out: MIC (minimum inhibitory concentration). On the procedure:
(§10) The broad spectrum antifungal activity of the present compounds was further determined by broth dilution methods. The compounds are particularly active towards filamentous fungi and yeasts including Candida albicans and Crypt. neoformans. The sensitivity of filamentous fungi and yeasts was determined using inhibitor dilution assays in microtiter format. A standardized spore suspension for testing the filamentous fungi was prepared by inoculating sterile distilled water with spores such that 1.5-7.5×10^3 colony forming units were added per well. The microtiter wells were filled with 75 μl of yeast nitrogen base containing 1% Dextrose medium (YNB/D) containing compound. Fifty μl of inoculated YNB/D medium was then added to the wells.
(§11) The sensitivity of yeasts was determined by inoculating sterile distilled water with aliquots of a 4-hour yeast culture grown in Yeast Morphology (YM) media at 35° C. and diluting in YNB/D to yield a final concentration of 1.5-7.5×10^3 colony forming units/well. Seventy-five μl of inoculated media was added per well. To test the sensitivity of yeast, compound was solubilized in 10 percent aqueous DMSO at 2.56 mg/ml. The compound was diluted serially in YNB/D from 128 to 0.06 μg/ml. The wells were filled with 75 μl of drug containing media. […] Representative of the antifungal activity are the minimum inhibitory concentration and minimum fungicidal concentration data shown below in Table II: […]

Another test concerns Candida albicans. As to the kind of experiment: Microdilution broth assay. The note with it: 35° C., 24 to 48 hours. On the procedure: as §10, §11
The next test has as its system Candida guilliermondii. As to the kind of experiment: Microdilution broth assay. The note with it: Meyerozyma guilliermondii; strain MY 1019; 35° C., 24 to 48 hours; read-out: MIC (minimum inhibitory concentration). On the procedure:
as §10, §11

The next test concerns Candida tropicalis. In words: Microdilution broth assay. The note with it: strain MY 1012, 35° C., 24 to 48 hours, read-out: MIC (minimum inhibitory concentration). On the procedure: as §10, §11
Another test concerns Cryptococcus neoformans. In words: Microdilution broth assay. The note with it: strain MY 1051, 35° C., 24 to 48 hours, read-out: MIC (minimum inhibitory concentration). On the procedure: as §10, §11
A further test relates to Saccharomyces cerevisiae. As to the kind of experiment: Microdilution broth assay. The note with it: strain MY 1976, 35° C., 24 to 48 hours, read-out: MIC (minimum inhibitory concentration). On the procedure:
as §10, §11

Each structure is given as a SMILES string. In brackets after ≈: the same amount, converted by molar mass.

For the compound `CC(/C=C/C=C(\C)C(O)C(C)C(=O)O[C@H]1C[C@H](C)C=C2C=C[C@@]3(C)O[C@@H](O)CC(=O)[C@]3(C)[C@H]21)=C\C=C\C(=O)O` (some centres unmarked) [Compound A], the zone quality qualifier entry with Aspergillus flavus was “H”; in the test on Botrytis allii, “S”; in the test on Cephalosporium sp., “F”; in the test with Ceratocystis ulmi, “V”; with Scopulariopsis communis it was “F”; with Trichoderma sp., “S”. The zone quality qualifier result in the test with Ustilago maydis was “V”. Also, the MIC with Aspergillus fumigatus was 64 µg/mL (≈ 118 µM); in the test on Candida albicans (Candida albicans, strain MY 1055, read-out: MIC (minimum inhibitory concentration)), at most 0.06 µg/mL; in the test on Candida guilliermondii, over 128 µg/mL; with Candida tropicalis, at most 0.06 µg/mL; in the test on Cryptococcus neoformans, 32 µg/mL (≈ 59.2 µM); in the test with Saccharomyces cerevisiae, over 128 µg/mL. Further, the “MIC (minimum inhibitory concentration)” value against Candida albicans (strain MY 1028) is at most 0.06 µg/mL.
